# In US10688031B2, “Low-toxicity sophorolipid-containing composition and use therefor” (Saraya Co., Ltd., priority 2013, dated 2020):
# Experiments:
# [1] = Critical micelle concentration (CMC) and surface tension-reducing ability, Wilhelmy method; type: physicochemical
# Procedure: The critical micelle concentration (CMC) and surface tension-reducing ability were measured according to the Wilhelmy method. The measurements were performed at pH 7 at 20° C. using a CBVP-Z automatic surface tensiometer (produced by Kyowa Interface Science Co., Ltd.). For pH adjustment, an aqueous sodium hydroxide solution or an aqueous hydrochloric acid solution was used.
# The critical micelle concentration (CMC) and surface tension-reducing ability of these SL-containing compositions were measured, and their performance as surfactants (wettability, solubilizing power, detergency, and foamability) was evaluated. The critical micelle concentration (CMC) and surface tension-reducing ability were measured in the same manner as in Test Example 2 according to the Wilhelmy method. Specifically, the measurement was performed at pH 7 at 20° C. using a CBVP-Z automatic surface tensiometer (produced by Kyowa Interface Science Co., Ltd.).
# HeLa cells = assay: Cytotoxicity test using HeLa cells (MTT assay); type: cell-based, human; details: 48 hours of treatment
# Procedure: HeLa cells (Kurabo Industries, Ltd.) were seeded in a 96-well plate to a concentration of 2×10^4 cells/well and cultured in Dulbecco's Modified Eagle Medium (produced by Nissui Pharmaceutical Co., Ltd.) containing 10% NCS (Newborn Calf Serum: produced by Invitrogen), non-essential amino acids, 58 μg/ml L-glutamic acid, 60 μg/ml kanamycin at 37° C., 5% CO2 for 72 hours. The medium was replaced with media containing the samples. After 48 hours, each medium was replaced with a medium containing 1 mg/ml MTT (3-(4,5-dimethyl-2-thiazolyl)-2,5-diphenyl-2H-tetrazolium bromide). After the treatment was allowed to proceed for 2 hours, formazan dye was extracted with isopropanol. Absorbance at a wavelength of 570 nm was measured. The viability % of the cells was calculated according to the following Formula.
# The cell viability was calculated from the above MTT assay, and the cell lethal concentration (IC50) was determined from the obtained cell viability.
SMILES,"CMC ([1]; Table 5, repeated from Test Example 2) [ppm]","Critical micelle concentration (CMC) ([1]; pH 7, 20° C., Table 4) [ppm]","Surface tension-reducing ability ([1]; pH 7, 20° C., Table 4) [mN/m]",cell lethal concentration (IC50) (HeLa cells) [ppm]
"CCCCCCCCCCCCOS(=O)(=O)[O-].[Na+] [SLS, Sodium Lauryl Sulfate]",300,300,34.0,<10
CCCCCCCC/C=C\CCCCCCCC(=O)O [oleic acid],,,,300
